# Measured values reported in patent US20250041254A1, “USE OF SODIUM FORMATE IN PREPARATION OF AN ANTI-INFECTIVE DRUG” (priority 2022, published 2025).
# Experiments:
# Format in all cases: cell-based
# [1] = tested on: clinical multidrug-resistant and carbapenem-resistant Escherichia coli (CR-EC); test: Survival rate (dot plate counting) of clinical multidrug-resistant and carbapenem-resistant Escherichia coli, 18 strains; details: 10 hours
# Procedure: (§1) Single bacterial colonies were selected and inoculated into a 5 mL LB medium, cultivated at 37° C. (clinically multidrug-resistant and carbapenem-resistant or multidrug-resistant but carbapenem-sensitive Escherichia coli, clinically multidrug-resistant and carbapenem-resistant or multidrug-resistant but carbapenem-sensitive Klebsiella pneumoniae, clinically multidrug-resistant and carbapenem-resistant or multidrug-resistant but carbapenem-sensitive Pseudomonas aeruginosa, methicillin-resistant Staphylococcus aureus, and sensitive bacteria for each type of bacteria) or 30° C. […]
# (§2) Thirty-six clinical multidrug-resistant Escherichia coli samples were prepared according to Embodiment 1, of which 18 were clinical multidrug-resistant and carbapenem-resistant Escherichia coli (abbreviated as CR-EC) and 18 were clinical multidrug-resistant but carbapenem-sensitive Escherichia coli (abbreviated as MDR-EC). […] The number of bacteria was counted. […]
# [2] = tested on: clinical multidrug-resistant but carbapenem-sensitive Escherichia coli (MDR-EC); test: Survival rate (dot plate counting) of clinical multidrug-resistant but carbapenem-sensitive Escherichia coli, 18 strains; details: 10 hours
# Procedure: as §1, §2
# [3] = tested on: clinically multidrug-resistant and carbapenem-resistant Escherichia coli strain No. 28; test: Live bacterial count / survival rate of CR Escherichia coli strain No. 28 (antibiotic concentration, sodium formate concentration, time, other antibiotics)
# Procedure: Single bacterial colonies were selected and inoculated into a 5 mL LB medium, cultivated at 37° C. (clinically multidrug-resistant and carbapenem-resistant or multidrug-resistant but carbapenem-sensitive Escherichia coli, clinically multidrug-resistant and carbapenem-resistant or multidrug-resistant but carbapenem-sensitive Klebsiella pneumoniae, clinically multidrug-resistant and carbapenem-resistant or multidrug-resistant but carbapenem-sensitive Pseudomonas aeruginosa, methicillin-resistant Staphylococcus aureus, and sensitive bacteria for each type of bacteria) or 30° C. (Edwardsiella tarda and Vibrio) at 200 rpm for 16-24 hours; an appropriate amount of a bacterial solution was taken for centrifugation at 8000 rpm for 5 min to collect bacterial cells, the supernatant was removed, and the bacterial cells were washed with an equal volume of 0.85% normal saline for 3 times and suspended in M9 medium (containing 10 mM proline, 2 mM MgSO4. 0.1 mM CaCl2)), and a base bacterial solution was cultured with M9 to an OD600 concentration of 0.6 and divided into 5 mL test tubes for later use.
# Taking clinically multidrug-resistant and carbapenem-resistant Escherichia coli strain No. 28 as an example, adding different concentrations of sodium formate or different concentrations of antibiotics and under different treating times, the effect of improving the sensitivity of multidrug-resistant Escherichia coli to micronomicin was studied in depth.
# To understand how sodium formate increased the sensitivity of bacteria to micronomicin at different antibiotic concentrations, on the basis of exogenous addition of 20 mM sodium formate, 30-480 μg/mL (several concentrations of) micronomicin was added to treat bacteria. No antibiotic addition was used as a control, and live bacterial counts were performed to compare the survival rates of bacteria with and without the addition of sodium formate at the same antibiotic concentration after 10 hours.
# To investigate whether there was a gradient effect between the concentration of sodium formate and the bactericidal efficiency, as well as its optimal bactericidal concentration, different concentrations of sodium formate (0.625 mM-40 mM) were added on the basis of 60 μg/mL micronomicin addition for 10 hours, then live bacteria were counted, and the survival rate was calculated according to a formula as the following: the number of live bacteria with different concentrations of sodium formate addition/the number of live bacteria without sodium formate addition×100%.
# Further research was conducted on adding 20 mM sodium formate and 60 μg/mL micronomicin and counting live bacteria at different time, and the relationship between its bactericidal efficiency and time was observed.
# To investigate whether the addition of sodium formate is effective to antibiotics other than micronomicin in multidrug-resistant Escherichia coli, a clinical multidrug-resistant and carbapenem-resistant Escherichia coli sample No. 28 was prepared according to Embodiment 1, and 20 mM sodium formate and different kinds of antibiotics were added, respectively. After 10 hours of action, the number of live bacteria was counted, and the survival rate of the bacteria with different antibiotics was calculated after adding sodium formate.
Compound,killing effect on bacteria ([1]; 20 mM sodium formate alone),killing effect on bacteria ([2]; 20 mM sodium formate alone),"survival rate ([1]; 60 μg/mL micronomicin only, all 18 strains)","survival rate ([2]; 60 μg/mL micronomicin only, remaining 8 strains)","number of live bacteria ([3]; 60 μg/mL micronomicin only, 1-4 hours)","survival rate ([3]; 60 μg/mL micronomicin only, 6 hours)","survival rate ([3]; 60 μg/mL micronomicin only, 16 hours)","survival rate ([3]; 60 μg/mL micronomicin only, 24 hours)","survival rate ([3]; micronomicin 30 μg/mL without sodium formate, 10 hours)","survival rate ([3]; micronomicin 60 μg/mL without sodium formate, 10 hours)","survival rate ([3]; micronomicin 120 μg/mL without sodium formate, 10 hours)","survival rate ([3]; micronomicin 240 μg/mL without sodium formate, 10 hours)","survival rate ([3]; micronomicin 480 μg/mL without sodium formate, 10 hours)","bacterial survival rate ([3]; sodium formate gradient experiment, control group: 60 μg/mL micronomicin without sodium formate, 10 hours)"
O=C[O-].[Na+] [sodium formate],no killing effect,no killing effect,,,,,,,,,,,,
CNC[C@@H]1CC[C@@H](N)[C@@H](O[C@H]2[C@H](O)[C@@H](O[C@H]3OC[C@](C)(O)[C@H](NC)[C@H]3O)[C@H](N)C[C@@H]2N)O1 [micronomicin],,,67-97%,less than 60%,remained basically unchanged,87.96%,72.72%,34.64%,100%,77.37%,35.87%,29.77%,29.01%,72.3%
